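Growth conditions: 96-well plates. Treatment: test compound, 48 hours, 5 concentrations. Analysis: linear interpolation between bracketing concentrations; unreached endpoints set to highest concentration. GI50 marks 50% less growth. TGI denotes the concentration required for complete inhibition of growth.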
Experiments:
Assay in all cases: NCI-60 cell line screen, 48 h
786-0 renal = system: 786-0 renal
A498 renal = system: A498 renal
A549 NSCLC = system: A549 NSCLC
ACHN renal = system: ACHN renal
BT-549 breast = system: BT-549 breast
CAKI-1 renal = system: CAKI-1 renal
CCRF-CEM leukemia = system: CCRF-CEM leukemia
COLO 205 colon = system: COLO 205 colon
DU-145 prostate = system: DU-145 prostate
EKVX NSCLC = system: EKVX NSCLC
HCT-116 colon = system: HCT-116 colon
HCT-15 colon = system: HCT-15 colon
HOP-62 NSCLC = system: HOP-62 NSCLC
HOP-92 NSCLC = system: HOP-92 NSCLC
HS 578T breast = system: HS 578T breast
HT29 colon = system: HT29 colon
IGROV1 ovarian = system: IGROV1 ovarian
K-562 leukemia = system: K-562 leukemia
KM12 colon = system: KM12 colon
LOX IMVI melanoma = system: LOX IMVI melanoma
M14 melanoma = system: M14 melanoma
MALME-3M melanoma = system: MALME-3M melanoma
MCF7 breast = system: MCF7 breast
MDA-MB-231 breast = system: MDA-MB-231 breast
MDA-MB-435 = system: MDA-MB-435
MOLT-4 leukemia = system: MOLT-4 leukemia
NCI-H226 lung = system: NCI-H226 lung
NCI-H23 lung = system: NCI-H23 lung
NCI-H460 lung = system: NCI-H460 lung
NCI-H522 lung = system: NCI-H522 lung
NCI/ADR-RES ovarian = system: NCI/ADR-RES ovarian
OVCAR-3 ovarian = system: OVCAR-3 ovarian
OVCAR-4 ovarian = system: OVCAR-4 ovarian
OVCAR-5 ovarian = system: OVCAR-5 ovarian
OVCAR-8 ovarian = system: OVCAR-8 ovarian
PC-3 prostate = system: PC-3 prostate
RPMI-8226 leukemia = system: RPMI-8226 leukemia
RXF 393 renal = system: RXF 393 renal
SF-268 CNS = system: SF-268 CNS
SF-295 CNS = system: SF-295 CNS
SF-539 CNS = system: SF-539 CNS
SK-MEL-2 melanoma = system: SK-MEL-2 melanoma
SK-MEL-28 melanoma = system: SK-MEL-28 melanoma
SK-MEL-5 melanoma = system: SK-MEL-5 melanoma
SK-OV-3 ovarian = system: SK-OV-3 ovarian
SN12C renal = system: SN12C renal
SNB-19 CNS = system: SNB-19 CNS
SNB-75 CNS = system: SNB-75 CNS
SR leukemia = system: SR leukemia
SW-620 colon = system: SW-620 colon
T-47D breast = system: T-47D breast
TK-10 renal = system: TK-10 renal
U251 CNS = system: U251 CNS
UACC-257 melanoma = system: UACC-257 melanoma
UACC-62 melanoma = system: UACC-62 melanoma
UO-31 renal = system: UO-31 renal
HCC-2998 colon = system: HCC-2998 colon
HL-60(TB) leukemia = system: HL-60(TB) leukemia

For `CN(C)c1ccc(/C=N/NC(=S)Nc2ccccc2)cc1`, the TGI (786-0 renal) was over 100 µM, the TGI (A498 renal) was over 100 µM and the TGI (A549 NSCLC) was over 100 µM. For the same compound, the TGI (ACHN renal) was over 100 µM, the TGI (BT-549 breast) was over 100 µM and the TGI (CAKI-1 renal) was over 100 µM. It also gave a TGI (CCRF-CEM leukemia) of over 100 µM, a TGI (COLO 205 colon) of over 100 µM and a TGI (DU-145 prostate) of over 100 µM. The TGI (EKVX NSCLC) was over 100 µM, the TGI (HCT-116 colon) was over 100 µM and the TGI (HCT-15 colon) was over 100 µM. The TGI (HOP-62 NSCLC) was over 100 µM, the TGI (HOP-92 NSCLC) was over 100 µM and the TGI (HS 578T breast) was over 100 µM. It also gave a TGI (HT29 colon) of over 100 µM, a TGI (IGROV1 ovarian) of over 100 µM and a TGI (K-562 leukemia) of over 100 µM. The TGI (KM12 colon) was over 100 µM, the TGI (LOX IMVI melanoma) was over 100 µM and the TGI (M14 melanoma) was over 100 µM. It also gave a TGI (MALME-3M melanoma) of over 100 µM, a TGI (MCF7 breast) of over 100 µM and a TGI (MDA-MB-231 breast) of over 100 µM. For the same compound, the TGI (MDA-MB-435) was over 100 µM, the TGI (MOLT-4 leukemia) was over 100 µM and the TGI (NCI-H226 lung) was over 100 µM. It also gave a TGI (NCI-H23 lung) of over 100 µM, a TGI (NCI-H460 lung) of over 100 µM and a TGI (NCI-H522 lung) of over 100 µM. The TGI (NCI/ADR-RES ovarian) was over 100 µM, the TGI (OVCAR-3 ovarian) was over 100 µM and the TGI (OVCAR-4 ovarian) was over 100 µM. It also gave a TGI (OVCAR-5 ovarian) of over 100 µM, a TGI (OVCAR-8 ovarian) of over 100 µM and a TGI (PC-3 prostate) of over 100 µM. For the same compound, the TGI (RPMI-8226 leukemia) was over 100 µM, the TGI (RXF 393 renal) was over 100 µM and the TGI (SF-268 CNS) was over 100 µM. It also gave a TGI (SF-295 CNS) of over 100 µM, a TGI (SF-539 CNS) of over 100 µM and a TGI (SK-MEL-2 melanoma) of over 100 µM. It also gave a TGI (SK-MEL-28 melanoma) of over 100 µM, a TGI (SK-MEL-5 melanoma) of over 100 µM and a TGI (SK-OV-3 ovarian) of over 100 µM. The TGI (SN12C renal) was over 100 µM, the TGI (SNB-19 CNS) was over 100 µM and the TGI (SNB-75 CNS) was over 100 µM. For the same compound, the TGI (SR leukemia) was over 100 µM, the TGI (SW-620 colon) was over 100 µM and the TGI (T-47D breast) was over 100 µM. For the same compound, the TGI (TK-10 renal) was over 100 µM, the TGI (U251 CNS) was over 100 µM and the TGI (UACC-257 melanoma) was over 100 µM. It also gave a TGI (UACC-62 melanoma) of over 100 µM and a TGI (UO-31 renal) of over 100 µM.
For `CC1(C)[C@@H](NOCCCN)CC[C@]2(C)[C@H]3C(=O)C=C4[C@@H]5C[C@](C)(C(=O)O)CC[C@]5(C)CC[C@@]4(C)[C@]3(C)CC[C@@H]12`, the GI50 (786-0 renal) was 6.23 µM, the TGI (786-0 renal) was 19.2 µM and the GI50 (A498 renal) was 17.8 µM. It also gave a TGI (A498 renal) of 43 µM, a GI50 (A549 NSCLC) of 6.13 µM and a TGI (A549 NSCLC) of 33.6 µM. For the same compound, the GI50 (ACHN renal) was 7.87 µM, the TGI (ACHN renal) was 21.2 µM and the GI50 (BT-549 breast) was 9.44 µM. It also gave a TGI (BT-549 breast) of 47.8 µM, a GI50 (CAKI-1 renal) of 2.44 µM and a TGI (CAKI-1 renal) of 6.26 µM. For the same compound, the GI50 (CCRF-CEM leukemia) was 7.52 µM, the TGI (CCRF-CEM leukemia) was over 100 µM and the GI50 (COLO 205 colon) was 2.41 µM. It also gave a TGI (COLO 205 colon) of 6.34 µM, a GI50 (DU-145 prostate) of 4.63 µM and a TGI (DU-145 prostate) of 15.4 µM. It also gave a GI50 (EKVX NSCLC) of 14 µM, a TGI (EKVX NSCLC) of 44.8 µM and a GI50 (HCC-2998 colon) of 3.59 µM. It also gave a TGI (HCC-2998 colon) of 13.1 µM, a GI50 (HCT-116 colon) of 2.95 µM and a TGI (HCT-116 colon) of 11.5 µM. The GI50 (HCT-15 colon) was 3.6 µM, the TGI (HCT-15 colon) was over 100 µM and the GI50 (HL-60(TB) leukemia) was 1.89 µM. For the same compound, the TGI (HL-60(TB) leukemia) was 4.16 µM, the GI50 (HOP-62 NSCLC) was 13.5 µM and the TGI (HOP-62 NSCLC) was 48.4 µM. For the same compound, the GI50 (HOP-92 NSCLC) was 2.38 µM, the TGI (HOP-92 NSCLC) was 12.3 µM and the GI50 (HS 578T breast) was 4.23 µM. The TGI (HS 578T breast) was 50 µM, the GI50 (HT29 colon) was 3.45 µM and the TGI (HT29 colon) was 16.1 µM. It also gave a GI50 (IGROV1 ovarian) of 12.2 µM, a TGI (IGROV1 ovarian) of 24.6 µM and a GI50 (K-562 leukemia) of 2.57 µM. It also gave a TGI (K-562 leukemia) of 12.1 µM, a GI50 (KM12 colon) of 3.27 µM and a TGI (KM12 colon) of 12.6 µM. The GI50 (M14 melanoma) was 8.46 µM, the TGI (M14 melanoma) was 28.8 µM and the GI50 (MALME-3M melanoma) was 4.56 µM. The TGI (MALME-3M melanoma) was 16.9 µM, the GI50 (MCF7 breast) was 4.09 µM and the TGI (MCF7 breast) was 17.1 µM. The GI50 (MDA-MB-231 breast) was 8.57 µM, the TGI (MDA-MB-231 breast) was 22.1 µM and the GI50 (MDA-MB-435) was 6.08 µM. It also gave a TGI (MDA-MB-435) of 23.6 µM, a GI50 (MOLT-4 leukemia) of 4.63 µM and a TGI (MOLT-4 leukemia) of 43 µM. It also gave a GI50 (NCI-H226 lung) of 5.46 µM, a TGI (NCI-H226 lung) of 19.2 µM and a GI50 (NCI-H23 lung) of 10.7 µM. For the same compound, the TGI (NCI-H23 lung) was 64.7 µM, the GI50 (NCI-H460 lung) was 8.29 µM and the TGI (NCI-H460 lung) was 46 µM. It also gave a GI50 (NCI-H522 lung) of 2.08 µM, a TGI (NCI-H522 lung) of 4.85 µM and a GI50 (NCI/ADR-RES ovarian) of 10.6 µM. For the same compound, the TGI (NCI/ADR-RES ovarian) was 69.4 µM, the GI50 (OVCAR-3 ovarian) was 4.17 µM and the TGI (OVCAR-3 ovarian) was 19.7 µM. It also gave a GI50 (OVCAR-4 ovarian) of 8.69 µM, a TGI (OVCAR-4 ovarian) of 34.8 µM and a GI50 (OVCAR-5 ovarian) of 14.1 µM. The TGI (OVCAR-5 ovarian) was 28.1 µM, the GI50 (OVCAR-8 ovarian) was 6.18 µM and the TGI (OVCAR-8 ovarian) was 28.7 µM. For the same compound, the GI50 (PC-3 prostate) was 3.66 µM, the TGI (PC-3 prostate) was 19 µM and the GI50 (RPMI-8226 leukemia) was 2.8 µM. The TGI (RPMI-8226 leukemia) was 19.7 µM, the GI50 (RXF 393 renal) was 2.3 µM and the TGI (RXF 393 renal) was 5.31 µM. It also gave a GI50 (SF-268 CNS) of 8.92 µM, a TGI (SF-268 CNS) of 21.6 µM and a GI50 (SF-295 CNS) of 10.3 µM. For the same compound, the TGI (SF-295 CNS) was 29.1 µM, the GI50 (SF-539 CNS) was 11.9 µM and the TGI (SF-539 CNS) was 24.2 µM. For the same compound, the GI50 (SK-MEL-2 melanoma) was 5.3 µM, the TGI (SK-MEL-2 melanoma) was 26.6 µM and the GI50 (SK-MEL-28 melanoma) was 4.08 µM. The TGI (SK-MEL-28 melanoma) was 13.6 µM, the GI50 (SK-MEL-5 melanoma) was 3.17 µM and the TGI (SK-MEL-5 melanoma) was 10.9 µM. It also gave a GI50 (SK-OV-3 ovarian) of 17.8 µM, a TGI (SK-OV-3 ovarian) of 67 µM and a GI50 (SN12C renal) of 4.6 µM. For the same compound, the TGI (SN12C renal) was 19.5 µM, the GI50 (SNB-19 CNS) was 13.5 µM and the TGI (SNB-19 CNS) was 43.7 µM. For the same compound, the GI50 (SNB-75 CNS) was 12 µM, the TGI (SNB-75 CNS) was 42.4 µM and the GI50 (SR leukemia) was 2.27 µM. It also gave a TGI (SR leukemia) of 6.89 µM, a GI50 (SW-620 colon) of 3.41 µM and a TGI (SW-620 colon) of 14 µM. For the same compound, the GI50 (T-47D breast) was 3.42 µM, the TGI (T-47D breast) was 22.4 µM and the GI50 (TK-10 renal) was 16.7 µM. For the same compound, the TGI (TK-10 renal) was 36 µM, the GI50 (U251 CNS) was 4.49 µM and the TGI (U251 CNS) was 25.4 µM. For the same compound, the GI50 (UACC-257 melanoma) was 6.81 µM, the TGI (UACC-257 melanoma) was 32.3 µM and the GI50 (UACC-62 melanoma) was 3.85 µM. It also gave a TGI (UACC-62 melanoma) of 14.8 µM, a GI50 (UO-31 renal) of 7.44 µM and a TGI (UO-31 renal) of 20.4 µM.
